Key:
PARP = assay: Western immunoblotting for cleaved PARP in T47D cells; assay type: cell-based, human; conditions: 6 days
Procedure: (§1) At the end of the treatment, cells were scrapped and collected by washing with ice-cold PBS in a centrifuge tube. Cells were centrifuged at 2500 r.p.m. for 10 min, the pellet was again washed with ice-cold PBS and centrifuged. The cell pellet was then suspended in chilled cell lysis buffer (0.1 M Tris–HCl, 0.5% Triton X-100, protease inhibitor cocktail) and sonicated on ice for 10–15 s. The homogenate was kept on ice for 30 min and then centrifuged at 13 000 r.p.m. for 30 min. The supernatant was used as cell lysate. The cell lysates were stored at −80°C. Protein concentration of the cell lysates was determined using Bio-Rad protein assay reagents.
(§2) Protein lysates from MCF-7 and T47D cells were subjected to sodium dodecyl sulphate–polyacrylamide gel electrophoresis (SDS–PAGE) and immunoblotted for different proteins. […] Immunoreactive bands were visualised using the enhanced chemiluminescence detection reagents and analysis system (Amersham Bioscences) according to the manufacturer's instructions and quantified by densitometry using ImageQuant software version 5.
Figure 7 (A) Western immunoblotting of whole-cell lysates of treated MCF-7 and T47D cells for the expression of Bad. […] Numbers below the blot show fold increase in expression of the protein as analysed by ImageQuant densitometry analysis. […]

MCF-7 tumour xenografts = assay: In vivo antitumour study, established MCF-7 tumour xenografts; conditions: for Reduction in mean tumour volume compared with vehicle control / Reduction in mean tumour volume compared with the ATRA group (10 mg kg^−1 day^−1): 6 weeks; for Antitumour effect relative to ATRA / 4-HPR (33.0 μmol kg^−1 day^−1), in words: VN/14-1 16.5 μmol kg^−1 day^−1, VN/66-1 66.0 μmol kg^−1 day^−1
Procedure: All the animal studies were performed according to the guidelines and approval of the Animal Care Committee of the University of Maryland, School of Medicine. Ovariectomised female athymic nude 4–6-week-old mice were used. […] Ovariectomised mice were then inoculated with MCF-7 cells (2 × 10^6 cells in Matrigel per tumour growth site) subcutaneously (s.c.) on the right and left flank. Tumour volumes were measured weekly with calipers. […] Retinoic acid metabolism blocking agents were formulated in 0.3% HPC (hydroxy propyl cellulose). […] Compounds were injected continuously for three days with a drug holiday of one day after every 3 days of treatment. Twice per week, the mice were weighed and tumours were measured using a caliper. Tumour volume was calculated according to the formula 4/3πr1^2r2 (r1<r2). The tumour treatment study was continued for 6 weeks. At the end of 6 weeks, mice were killed and blood plasma, as well as tumours, were collected, weighed and stored at −80°C until analysis.
Female ovariectomised nude mice bearing established MCF-7 tumour xenografts (200–300 mm^3) were grouped so that the mean tumour volume was similar for each group. […] Tumour sizes were measured twice a week after the start of treatment.
Ovariectomised female athymic nude 4–6-week-old mice were used. Oestrogen pellets (1.7 mg per pellet, 90 day release obtained from Innovative Research of America) were implanted in the mice using a trochar to facilitate tumour growth. Mice were then inoculated with MCF-7 cells (2 × 10^6 cells in Matrigel per tumour growth site) s.c. on the right and left flank. Tumours were allowed to grow for about 4–5 weeks till they were of measurable size (200–300 mm^3). The mice were then grouped as control and treatment groups. Twice every week the mice were weighed and tumours were measured using a caliper. Tumour volume was calculated according to the formula 4/3πr1^2r2 (r1<r2). The tumour treatment study was continued for 6 weeks. […] Mice were weighed twice every week during the 6-week antitumour study.

ER-α = assay: Western immunoblotting for ER-α in MCF-7 cells; assay type: cell-based, human; conditions: 1–10 μM, 6 days, dose-dependent
Procedure: as §1, §2
Figure 4 Western immunoblotting analysis of whole-cell lysates of treated MCF-7 cells for the expression of ER-α. […] Numbers below the blot show fold increase in expression of the protein as analysed by ImageQuant densitometry analysis. […]

SMILES	Increase in level of cleaved PARP compared with control (PARP; 1 μM) [fold]	Increase in level of cleaved PARP compared with control (PARP; 5 μM) [fold]	Reduction in mean tumour volume compared with vehicle control (MCF-7 tumour xenografts; 16.5 μmol kg^−1 day^−1 s.c.) [%]	Reduction in mean tumour volume compared with the ATRA group (10 mg kg^−1 day^−1) (MCF-7 tumour xenografts; 33.0 μmol kg^−1 day^−1 s.c.) [%]	Reduction in mean tumour volume compared with vehicle control (MCF-7 tumour xenografts; 33.0 μmol kg^−1 day^−1 s.c.) [%]	Reduction in mean final tumour weight compared with mice receiving vehicle alone (MCF-7 tumour xenografts; 66.0 μmol kg^−1 day^−1) [%]	Reduction in mean tumour volume compared with the ATRA group (10 mg kg^−1 day^−1) (MCF-7 tumour xenografts; 66.0 μmol kg^−1 day^−1 s.c.) [%]	Reduction in mean tumour volume compared with vehicle control (MCF-7 tumour xenografts; 66.0 μmol kg^−1 day^−1 s.c.) [%]	Antitumour effect relative to ATRA / 4-HPR (33.0 μmol kg^−1 day^−1), in words (MCF-7 tumour xenografts)	Tumour regression in the antitumour efficacy studies (MCF-7 tumour xenografts; mouse, in vivo)	Increase in expression of ER-α (ER-α)
CC1=C(/C=C/C(C)=C/C=C/C(C)=C/C(=O)O)C(C)(C)CCC1n1ccnc1 (stereo not shown) [VN/14-1]	6.3	7.5	66.5	45	79.4	92.6	75.61	92.6	comparable with the antitumour effect of ATRA or 4-HPR	did not cause any tumour regressions	from four- to six-fold
CC1=C(/C=C/C(C)=C/C=C/C(C)=C/C(=O)O)C(C)(C)CCC1 [ATRA, all-trans-retinoic acid, reference compound]											from two- to eight-fold
CC1=C(/C=C/C(C)=C/C=C/C(C)=C/C(=O)Nc2ccc(O)cc2)C(C)(C)CCC1n1ccnc1 (stereo not shown) [VN/66-1]									not better than ATRA		
